The source of these data is publication PMC6217552, “Refining the structure−activity relationships of 2-phenylcyclopropane carboxylic acids as inhibitors of O-acetylserine sulfhydrylase isoforms” (Journal of Enzyme Inhibition and Medicinal Chemistry, 2018).

The Kd is the equilibrium constant for the complex coming apart. The IC50 is the concentration needed to halve the response being measured.

The target in data set [1] is T1, StOASS-B (Salmonella typhimurium, UniProt P29848).
T1 construct: made in house; host or cells: E. coli
T1 sequence (P29848 1-303): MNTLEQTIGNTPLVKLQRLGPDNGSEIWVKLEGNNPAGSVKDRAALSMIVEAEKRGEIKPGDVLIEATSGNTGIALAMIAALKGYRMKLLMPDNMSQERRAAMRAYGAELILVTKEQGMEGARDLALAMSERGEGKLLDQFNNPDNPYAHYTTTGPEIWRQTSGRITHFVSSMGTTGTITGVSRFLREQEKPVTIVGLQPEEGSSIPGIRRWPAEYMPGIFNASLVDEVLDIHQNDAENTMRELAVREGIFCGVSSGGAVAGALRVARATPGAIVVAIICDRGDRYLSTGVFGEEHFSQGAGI
The data set can be described thus: Direct fluorimetric titration of PLP cofactor fluorescence (dissociation constant). Format: binding. As for the experimental part:
(§1) StOASS-A and StOASS-B, expressed in E. coli, were purified by metal affinity chromatography as described previously. Proteins were more that 95% pure based on SDS-PAGE analysis (data not shown).
(§2) Ligand affinity was measured by direct fluorimetric titrations, monitoring the fluorescence emission spectrum of cofactor PLP upon excitation at 412 nm. 0.1–1 µM OASS was titrated by increasing concentrations of ligand in 100 mM HEPES pH 7.0, 1% DMSO, at 20 °C. The dependence of fluorescence emission intensity on the concentration of compound was fitted to a binding isotherm: I=I0+ΔI·[ligand]/Kd+[ligand] where, I is the fluorescence emission intensity at a given ligand concentration, I 0 is the fluorescence emission intensity in the absence of ligand, ΔI is the amplitude and K d is the dissociation constant. When the K d was lower than the concentration of the protein used in the assay, the dependence of the fluoresecnce emission intensity on ligand concentration was fitted to a quadratic equation that describes tight binding. The fluorescence competitive binding assay, described elsewhere, was used to evaluate whether compounds bind at the active site of the enzyme or to an allosteric site. The assay is based on the formation of a low-affinity, highly fluorescent complex between OASS and 1-ethylcyclopropane-1,2-dicarboxylic acid. Binding of a higher affinity compound to the active site displaces 1-ethylcyclopropane-1,2-dicarboxylic acid and leads to a decrease in the fluorescence emission intensity.

Data set [2] has as its target T2, StOASS-A (Salmonella typhimurium, UniProt P0A1E3).
T2 construct: made in house; host or cells: E. coli
Described as above. The note with it: 100 mM HEPES pH 7.0, 1% DMSO, 20 °C; read-out: OASS-A Kd. Format: binding, Salmonella enterica serovar Typhimurium. The protocol:
as §1, §2

The subject of data set [3] is Escherichia coli ATCC25922. The data set can be described thus: Minimal inhibitory concentration (CLSI) in medium with limiting cysteine. It counts as cell-based. The note with it: E. coli ATCC25922, medium with limiting cysteine; data not shown. As for the experimental part:
Minimal inhibitory concentration assays were performed according to the CLSI guidelines (Clinical and Laboratory Standards Institute; Performance Standards for Antimicrobial Susceptibility Testing; Twenty-Fourth Informational Supplement; CLSI document M100-S24, CLSI; 2014.). The compounds were dissolved in DMSO to obtain a stock solution 100-fold more concentrated than the desired higher concentration and then 10 serial dilutions were performed. One microliter of each dilution was transferred to the microtiter plate.
Escherichia coli ATCC25922 was grown until log phase on liquid Mueller–Hinton broth at 37 °C in a shaker at 225 rpm. Bacterial suspension was then centrifuged at 2500 rpm for 15 min and diluted with phosphate buffer to obtain a solution with a turbidity of about 0.5 McFarland. Bacterial suspension was further diluted (1:100) with fresh LB 20%. Fifty microliters of the bacterial suspension containing 10^6 CFU/mL were inoculated into each well, to obtain a final concentration of 5 × 10^5 CFU/mL. Each plate contained growth control wells and sterility check wells.
We investigated the ability of the new set of compounds to interfere with bacterial growth.

Data set [4] deals with T1, StOASS-B. The data set can be described thus: Steady-state enzyme activity assay, discontinuous ninhydrin cysteine determination. It counts as biochemical. As for the experimental part:
as §1
(§3) Enzyme activity under steady-state conditions was measured by a discontinuous method as described previously. Briefly, the reaction was carried out in 100 mM HEPES pH 7.0 in the presence of 6 nM OASS, 60 nM BSA to prevent enzyme adhesion to tube wall, 1 mM OAS (equal to the K m value of this subsrate), 0.6 mM Na2S (a saturating concentration), 1% DMSO and variable concentrations of inhibitor. Reaction was stopped at time intervals by the addition of acetic acid and concentration of cysteine was determined by a modification of the ninhydrin assay. The fractional velocity as a function of inhibitor concentration was determined and IC50 was calculated by the following equation: vi/v0=1/1+(I/IC50) where, v 0 is the reaction velocity in the absence of inhibitor and v i is reaction velocity in the presence of inhibitor at concentration [I].
(§4) For a competitive inhibitor against OAS the IC50 measured under these conditions is about 2⋅K d.

Data set [5] deals with T2, StOASS-A. The description is as above. The following applies: 1 mM OAS, 0.6 mM Na2S, 6 nM OASS, 100 mM HEPES pH 7.0, 1% DMSO. It counts as biochemical, Salmonella enterica serovar Typhimurium. The protocol:
as §1, §3, §4

The subject of the next data set is E.coli. Also noted: method as in manuscript in preparation. The note with it: ref manuscript in preparation, cited from earlier work.

“And” between values parts separate entries of the source, which are not always exact repeats. Equal values may be shown once. Read-outs that look alike come from different tables or passages of the source.

T2 sequence (P0A1E3 whole entry): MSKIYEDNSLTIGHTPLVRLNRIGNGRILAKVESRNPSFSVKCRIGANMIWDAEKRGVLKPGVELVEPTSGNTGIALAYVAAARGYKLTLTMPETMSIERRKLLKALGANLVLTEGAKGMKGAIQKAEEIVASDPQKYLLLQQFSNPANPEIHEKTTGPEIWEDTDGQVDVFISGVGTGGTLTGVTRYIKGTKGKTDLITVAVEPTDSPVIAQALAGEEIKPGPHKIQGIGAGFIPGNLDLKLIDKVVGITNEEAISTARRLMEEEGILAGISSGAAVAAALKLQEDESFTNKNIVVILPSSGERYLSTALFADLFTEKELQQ

“1-(4-methylbenzyl)-2-(pyridin-4-yl)cyclopropane-1-carboxylic acid [Compound 5]”: the Kd came to 6.1 ± 0.5 µM at StOASS-B [1] (100 mM HEPES pH 7.0, 1% DMSO, 20 °C, read-out: OASS-B Kd) and 0.4 ± 0.1 µM at StOASS-A [2]. Further, in data set [3], the “Interference with bacterial growth (MIC)” value is given as “none of the synthesised compounds was able to interfere significantly with bacterial growth”.

As to `Cc1ccc(CC2(C(=O)O)CC2c2ccc([N+](=O)[O-])cc2)cc1` (centres unmarked) [Compound 8, 1-(4-methylbenzyl)-2-(4-nitrophenyl)cyclopropane-1-carboxylic acid], the results for the Kd at StOASS-B [1] and on StOASS-A [2] were 145 ± 2 µM and 61 ± 6 µM, respectively.

`Cc1ccc(CC2(C(=O)O)CC2c2ccc(CNC(C)C)cc2)cc1` (centres unmarked) [Compound 10, 2-(4-((isopropylamino)methyl)phenyl)-1-(4-methylbenzyl)cyclopropane-1-carboxylic acid]: at StOASS-A [2], the equilibrium dissociation constant (Kd) is 155 ± 5 µM.

On to `Cc1ccc(CC2(C(=O)O)CC2c2ccc(N)cc2)cc1` (centres unmarked) [Compound 12, 2-(4-aminophenyl)-1-(4-methylbenzyl)cyclopropane-1-carboxylic acid], for which the dissociation constant (Kd) was 5.7 ± 0.7 µM on StOASS-B [1] and 1.4 ± 0.3 µM at StOASS-A [2]. The “Interference with bacterial growth (MIC)” value in data set [3] is “none of the synthesised compounds was able to interfere significantly with bacterial growth”.

With `Cc1ccc(C[C@]2(C(=O)N(C)C3CCOCC3)C[C@H]2c2ccccc2)cc1` [Compound 16, (1R,2S)-1-N-methyl-1-(4-methylbenzyl)-2-phenyl-N-(tetrahydro-2H-pyran-4-yl)cyclopropane-1-carboxamide], the concentration for half-maximal inhibition (IC50) at StOASS-B [4] is 137 ± 10 µM; on StOASS-A [5], 17.2 µM and 17 µM. Also, the “Interference with bacterial growth (MIC)” value in data set [3] is listed as “none of the synthesised compounds was able to interfere significantly with bacterial growth”.

For `CCN1CCCC1CNC(=O)[C@@]1(Cc2ccc(C)cc2)C[C@H]1c1ccccc1` (stereo partly drawn) [Compound 17, (1R,2S)-1-N-((1-ethylpyrrolidin-2-yl)methyl)-1-(4-methylbenzyl)-2-phenylcyclopropane-1-carboxamide], the IC50 on StOASS-B [4] and on StOASS-A [5] was more than 100 µM each time.

Turning to `Cc1ccc(C[C@]2(C(=O)NCc3ccccc3)C[C@H]2c2ccccc2)cc1` [Compound 18, (1R,2S)-1-N-benzyl-1-(4-methylbenzyl)-2-phenylcyclopropane-1-carboxamide], the IC50 was more than 100 µM on StOASS-B [4] (read-out: OASS-B IC50, 1 mM OAS, 0.6 mM Na2S, 6 nM OASS, 100 mM HEPES pH 7.0, 1% DMSO) and more than 100 µM on StOASS-A [5].

With `Cc1ccc(C[C@]2(C(=O)NCc3cccs3)C[C@H]2c2ccccc2)cc1` [Compound 19, (1R,2S)-1-(4-methylbenzyl)-2-phenyl-N-(thiophen-2-ylmethyl)cyclopropane-1-carboxamide], the IC50 against StOASS-B [4] and against StOASS-A [5] was more than 100 µM in each case.

In the case of `Cc1ccc(C[C@]2(C(=O)NCc3nccn3C)C[C@H]2c2ccccc2)cc1` [Compound 20, (1R,2S)-1-N-((1-methyl-1H-imidazol-2-yl)methyl)-1-(4-methylbenzyl)-2-phenylcyclopropane-1-carboxamide], the half-maximal inhibitory concentration (IC50) at StOASS-B [4] and against StOASS-A [5] was more than 100 µM throughout.

For `C#CCNC(=O)[C@@]1(Cc2ccc(C)cc2)C[C@H]1c1ccccc1` [Compound 21, (1R,2S)-1-(4-methylbenzyl)-2-phenyl-N-(prop-2-yn-1-yl)cyclopropane-1-carboxamide], the IC50 at StOASS-B [4] and on StOASS-A [5] was more than 100 µM in each case.

With `Cc1ccc(C[C@]2(C(=O)NCC3CCCO3)C[C@H]2c2ccccc2)cc1` (stereo partly drawn) [Compound 22, (1R,2S)-1-(4-methylbenzyl)-2-phenyl-N-((tetrahydrofuran-2-yl)methyl)cyclopropane-1-carboxamide], the IC50 against StOASS-B [4] and against StOASS-A [5] was more than 100 µM throughout.

The compound `N#C[C@@]1(Cc2ccccc2)C[C@H]1c1ccccc1` [Compound 28, (1R,2S)-1-benzyl-2-phenylcyclopropanecarbonitrile] had an IC50 on StOASS-A [5] of more than 250 µM.

As to `c1ccc(C[C@]2(c3nnn[nH]3)C[C@H]2c2ccccc2)cc1` [Compound 29, (1R,2S)-5-(1-benzyl-2-phenylcyclopropyl)-1H-tetrazole], the Kd on StOASS-A [2] is 90 ± 14 µM.

As to `O=C(O)C1(Cc2ccncc2)CC1c1ccccc1` (centres unmarked) [Compound 33, 2-phenyl-1-(pyridin-4-ylmethyl)cyclopropane-1-carboxylic acid], the Kd came out at 275 ± 42 µM on StOASS-B [1] and 24 ± 2 µM at StOASS-A [2]. For the same compound, in data set [3], the “Interference with bacterial growth (MIC)” value is recorded as “none of the synthesised compounds was able to interfere significantly with bacterial growth”.

Regarding `O=C(O)C1(Cn2ccnc2)CC1c1ccccc1` (centres unmarked) [Compound 47, 1-((1H-imidazol-1-yl)methyl)-2-phenylcyclopropane-1-carboxylic acid], the Kd at StOASS-B [1] came to 397 ± 42 µM; at StOASS-A [2], 7.6 ± 0.5 µM.

Regarding `O=C(O)C1(Cn2cccn2)CC1c1ccccc1` (centres unmarked) [Compound 48, 1-((1H-pyrazol-1-yl)methyl)-2-phenylcyclopropane-1-carboxylic acid], the Kd was 96 ± 7 µM at StOASS-B [1] and 1.5 ± 0.2 µM on StOASS-A [2].

Regarding `O=C(O)C1(Cn2cccc2)CC1c1ccccc1` (centres unmarked) [Compound 49, 1-((1H-pyrrol-1-yl)methyl)-2-phenylcyclopropane-1-carboxylic acid], the Kd at StOASS-B [1] worked out at 22 ± 2 µM; at StOASS-A [2], 0.5 ± 0.1 µM.

With `O=C(O)C1(Cn2cncn2)CC1c1ccccc1` (centres unmarked) [Compound 50, 1-((1H-1,2,4-triazol-1-yl)methyl)-2-phenylcyclopropane-1-carboxylic acid], the figures for the Kd at StOASS-B [1] and on StOASS-A [2] were 250 ± 14 µM and 18 ± 5 µM, respectively.

Regarding `Cc1ccc(C[C@@]2(C(=O)O)C[C@H]2c2ccccc2)cc1` [II, reference compound], in the data set with E.coli (E.coli, minimal medium), the “Inhibitory activity on cell growth” value is listed as “failed to show appreciable inhibitory activity on cell growth”. Further, the “MIC with permeabilizing agent” value in the data set on E.coli (co-administration of sub-lethal concentrations of polymyxin B nonapeptide (PMBN)) was “led to a measurable MIC”. In addition, the Kd was found to be 0.5 ± 0.1 µM at StOASS-B [1] and 0.03 ± 0.01 µM at StOASS-A [2].
